In patent US20260273020A1, “OBESTATIN FOR USE AS ANTINEOPLASTIC AGENT IN THE TREATMENT OF PANCREATIC CANCER” (SERVIZO GALEGO DE SAÚDE, priority 2023, published 2026):

Tested on: KPC FC1242 cells injected in the pancreas
Test: Orthotopic syngeneic mice model of pancreatic cancer: tumour growth
Format: in vivo, C57BL/6J mice
Experimental: FIG. 2. Schematic representation of an orthotopic syngeneic mice model established for the determination of obestatin action on tumoral development. In brief, KPC FC1242 (1×10E6) cells were injected in the pancreas of C57BL/6J mice. After nine days of tumoral growing, the mice were randomly assigned to the different groups (n=4/group) and treated with vehicle [NaCl, 0.9% (w/v)] or obestatin (500 nmol/Kg/72 h) via ALZET® osmotic micropumps for five days. Mice without tumoral cells treatment were utilized as healthy controls.
FIG. 3. Effect of obestatin treatment on tumoral growing. The KPC FC1242 cells (1×10E6) were injected into the pancreas of C57BL/6J mice. After nine days of tumour post-injection, mice were treated with vehicle [NaCl, 0.9% (w/v)] or obestatin (500 nmol/Kg/72 h) via ALZET® osmotic micropumps for five days. Mice without tumoral cells treatment were utilized as healthy controls (n=4). Pancreases/tumours were collected, measured and weighted at day 14 after tumour implantation. Results are expressed as mean mean±SE (*, #, P<0.05). […]
Day 1: Implantation of KPC FC1242 Cells into Mouse Pancreas • 1. […] The cells were kept cold, on ice, until ready to inject. • 2. […] The mouse was monitored until no longer mobile and breathing has slowed. […] Then, the mouse was ready for hair removal. • 3. […]

Substance: obestatin
- reduction in the pancreatic tumour growing in weight (mouse obestatin 500 nmol/Kg/72 h via osmotic micropumps for five days, from day 9 after tumour injection): 35.8±6.9%
- size and weight of tumours vs control or vehicle-treated groups (obestatin-treated group, 500 nmol/Kg/72 h): significantly smaller
